The values that follow come from patent US9581587B2, “Sperm staining and sorting methods” (INGURAN, LLC, priority 2011, dated 2017).

In test [1] the test system is sperm. In words: Split quality, phenol red as added split enhancing dye (Example 8). The class given is cell-based, bulls (Jersey, Holstein). On the procedure: Two bulls were collected for the Example 8. The Bull 1 was a Jersey bulls and Bull 2 was a Holstein collected substantially in the manner described in example 1. Sperm from Bull 1 extended to 160 million per with a first buffer, (TALP described in table 1 at a pH 7.4) and divided into two groups for staining. The first group was stained with 44 μM Hoechst 33342 and the second group was stained with 60 μM Hoechst 33342. Similarly, bull 2 was suspended to 160 million per mL the first buffer, (TALP described in table 1 at a pH 7.4) and divided into three groups for staining. The first group was stained with 28 μM Hoechst 33342 and the second group was stained with 44 μM Hoechst 33342 and the third group was stained with 66 μM Hoechst 33342. Each group was incubated for 1 hour at 34° C. and then extended in an equal volume of the second buffer. […] The stained samples were each treated with a variety of quenching dyes and combinations of quenching dyes indicated in below. […] After calibration, screen shots of sorting histograms were taken and histograms split quality was measured as a peak to valley ratio in the same way described in Example 5 with reference to FIG. 4 and the resulting data is found in Table 16.

Test [2] deals with sperm. In words: Post thaw motility of sorted sperm on CASA (Example 4). The class given is cell-based, canine. As to conditions: for Progressive / Motile: average, 0 Hr post thaw. As to the method:
Sperm was collected from a single canine at room temperature into CaniPro Chill 5, available from Minitube, WI, USA, then centrifuged into a pellet and resuspended in a Tris buffer at a pH of 6.8.
Samples were extended to 40×10^6 sperm/ml in 1 ml volumes with the Tris buffer described in Example 1 but set to a pH of 7.2. Ten samples were then stained 4, 4, 5, 5, 7, 8, 8, 9, 9, and 10 μL of Hoechst 33342 and quenched with one of two quenching dyes at a concentration of 50 μM in a second buffer Tris buffer.
Red food dye No. 40 quencher—1 ml Tris at a pH 6.3 was added with red food dye No. 40 into samples stained with 4, 5, 8, 9, 10 μL Hoechst 33342. The red food dye No. 40 was added at a concentration of about 50 μM.
Yellow food dye No. 6 quencher—1 ml Tris at a pH 6.3 was added with yellow food dye No. 6 into samples stained with 4, 5, 7, 8, 9 μL Hoechst 33342. The yellow food dye No. 6 was added at the same concentration as the red food dye No. 40 quencher, at about 50 μM.
5 million cells were sex sorted with a MoFlo SX XPD into 50 mL Falcon tubes having 3.5 mL of a Tris-egg yolk catch fluid, described in Example 1 for both X and Y populations. Two samples were sorted, the red food dye No. 40 quenched treatment with 9 μL Hoechst 33342 and the yellow food dye […] quenched treatment with 7 μL Hoechst 33342.
Straws were then frozen and stored in liquid nitrogen.
Straws were thawed for 30 sec in a 38° C. water bath and their motilities were examined on CASA.
Table 12 illustrates the average motilities and progressive motilities for the sorted treatments. Canine sperm quenched with yellow food dye No. 6 provided about 4.5% more motile sperm in the X population and 6.5% more motile sperm in the Y population. Similarly, the yellow quenched dye provided 7% better progressive motility in the X population and 8% better progressive motility in the Y population.

SMILES strings stand for the structures.

Consider `O=S1(=O)OC(c2ccc(O)cc2)(c2ccc(O)cc2)c2ccccc21` [Phenol Red, phenolsulfonphthalein], for which the “effect of adding phenol red on split quality” value in the test on sperm [1] (each Hoechst staining level, with Red 40 or Yellow 6) is listed as “always improved split quality”.

With `COc1cc(S(=O)(=O)O)c(C)cc1N=Nc1c(O)ccc2cc(S(=O)(=O)O)ccc12` [Red 40, 6-hydroxy-5-[(2-methoxy-5-methyl-4-sulfophenyl)azo]-2-naphthalenesulfonic acid, reference compound], the Progressive in the test with sperm [2] (Y population) is 13.

Consider `O=S(=O)([O-])c1ccc(N=Nc2c(O)ccc3cc(S(=O)(=O)[O-])ccc23)cc1.[Na+].[Na+]` [Yellow 6, Disodium 6-hydroxy-5[(4-sulfophenyl)azo]-2-naphthalenesulfononate], for which the PV in the test on sperm [1] (Bull 1, Hoechst 33342 44 μM, R40 0, Y6 50 μM, PR 0) turned out to be 1.20. In the test with sperm [2] (X population), the “better progressive motility than red quenched” value came to 7%, the “more motile sperm than red quenched” value is on record as “about 4.5%”, the Motile worked out at 24 and the Progressive was 18.5. In the test with sperm [2] (Y population), the “better progressive motility than red quenched” value turned out to be 8%, the “more motile sperm than red quenched” value is listed as roughly 6.5%, the Motile is 25 and the Progressive was 21.
